In PubChem BioAssay (NCI):
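Briefly, cells in 96-well plates were exposed to five compound concentrations for 48 h, and endpoints were estimated by linear interpolation. At the TGI there is no net growth.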

What was measured:
Experiment in all cases: NCI anticancer screen, dose series, 48 h
[1] = tested on: NCI/ADR-RES ovarian
[2] = tested on: UO-31 renal
[3] = tested on: CCRF-CEM leukemia
[4] = tested on: MALME-3M melanoma
[5] = tested on: LOX IMVI melanoma
[6] = tested on: SNB-19 CNS
[7] = tested on: SR leukemia
[8] = tested on: OVCAR-8 ovarian
[9] = tested on: HCC-2998 colon
[10] = tested on: SF-539 CNS
[11] = tested on: KM12 colon
[12] = tested on: SK-MEL-2 melanoma
[13] = tested on: MDA-MB-231 breast
[14] = tested on: UACC-62 melanoma
[15] = tested on: HCT-116 colon
[16] = tested on: HS 578T breast
[17] = tested on: NCI-H522 lung
[18] = tested on: ACHN renal
[19] = tested on: HT29 colon
[20] = tested on: 786-0 renal
[21] = tested on: SF-295 CNS
[22] = tested on: MOLT-4 leukemia
[23] = tested on: NCI-H23 lung
[24] = tested on: COLO 205 colon
[25] = tested on: A549 NSCLC
[26] = tested on: DU-145 prostate
[27] = tested on: HCT-15 colon
[28] = tested on: SF-268 CNS
[29] = tested on: HOP-92 NSCLC
[30] = tested on: SN12C renal
[31] = tested on: MDA-MB-435
[32] = tested on: U251 CNS
[33] = tested on: A498 renal
[34] = tested on: OVCAR-5 ovarian
[35] = tested on: SK-MEL-28 melanoma
[36] = tested on: SK-MEL-5 melanoma
[37] = tested on: OVCAR-3 ovarian
[38] = tested on: SK-OV-3 ovarian
[39] = tested on: BT-549 breast
[40] = tested on: NCI-H226 lung
[41] = tested on: TK-10 renal
[42] = tested on: SW-620 colon
[43] = tested on: MCF7 breast
[44] = tested on: EKVX NSCLC
[45] = tested on: MDA-N
[46] = tested on: RPMI-8226 leukemia
[47] = tested on: HL-60(TB) leukemia
[48] = tested on: M14 melanoma
[49] = tested on: PC-3 prostate
[50] = tested on: CAKI-1 renal
[51] = tested on: RXF 393 renal
[52] = tested on: HOP-62 NSCLC
[53] = tested on: T-47D breast
[54] = tested on: OVCAR-4 ovarian
[55] = tested on: UACC-257 melanoma
[56] = tested on: SNB-75 CNS
[57] = tested on: IGROV1 ovarian
[58] = tested on: K-562 leukemia
[59] = tested on: NCI-H460 lung

Clc1nncc2sc(-c3ccccc3)nc12
TGI [1]: 69.1 µM | TGI [2]: 55 µM | TGI [3]: > 94.4 µM | TGI [4]: 70.6 µM | TGI [5]: 50.2 µM | TGI [6]: 51.4 µM | TGI [7]: > 100 µM | TGI [8]: 59.3 µM | TGI [9]: > 45.7 µM | TGI [10]: 74.6 µM | TGI [11]: > 72.8 µM | TGI [12]: 47.4 µM | TGI [13]: 56.1 µM | TGI [14]: 46.4 µM | TGI [15]: 48.9 µM | TGI [16]: 64.7 µM | TGI [17]: 44.8 µM | TGI [18]: > 84.9 µM | TGI [19]: 68.5 µM | TGI [20]: > 100 µM | TGI [21]: > 77.4 µM | TGI [22]: > 97.2 µM | TGI [23]: 52.9 µM | TGI [24]: > 86.5 µM | TGI [25]: > 100 µM | TGI [26]: 31.8 µM | TGI [27]: 36.4 µM | TGI [28]: 49 µM | TGI [29]: 24 µM | TGI [30]: 57.7 µM | TGI [31]: 49.6 µM | TGI [32]: > 53.2 µM | TGI [33]: > 100 µM | TGI [34]: > 100 µM | TGI [35]: > 50.8 µM | TGI [36]: 46.3 µM | TGI [37]: 33.8 µM | TGI [38]: 80.6 µM | TGI [39]: > 53.2 µM | TGI [40]: > 82.4 µM | TGI [41]: > 100 µM | TGI [42]: 61.3 µM | TGI [43]: > 92.6 µM | TGI [44]: 12.5 µM | TGI [45]: 51.4 µM | TGI [46]: > 100 µM | TGI [47]: 51.2 µM | TGI [48]: 52.3 µM | TGI [49]: > 58.2 µM | TGI [50]: 2.91 µM | TGI [51]: 50.7 µM | TGI [52]: 53.6 µM | TGI [53]: > 100 µM | TGI [54]: 53.5 µM | TGI [55]: 56.7 µM | TGI [56]: > 64.1 µM | TGI [57]: 40.3 µM | TGI [58]: > 100 µM | TGI [59]: > 57.7 µM

CC1OC(c2ccc3c(c2O)C(=O)C2=C(C3=O)C3(O)C(=O)CC(C)(O)CC3(O)C=C2)CC(O)C1O (stereo not drawn)
TGI [1]: 51.8 µM | TGI [2]: 36.9 µM | TGI [3]: 5.27 µM | TGI [4]: 12.8 µM | TGI [5]: 30.9 µM | TGI [6]: 58.8 µM | TGI [7]: 33.5 µM | TGI [8]: 51.5 µM | TGI [9]: 31.7 µM | TGI [10]: 35.6 µM | TGI [11]: > 60.6 µM | TGI [12]: 42.4 µM | TGI [13]: 6.17 µM | TGI [14]: 30.4 µM | TGI [15]: 17.5 µM | TGI [16]: 53.2 µM | TGI [17]: 5.86 µM | TGI [18]: 26.5 µM | TGI [19]: 19.6 µM | TGI [20]: 33.6 µM | TGI [21]: 34.2 µM | TGI [22]: 15.3 µM | TGI [23]: 45.6 µM | TGI [24]: 3.39 µM | TGI [25]: > 73.5 µM | TGI [26]: 29.1 µM | TGI [27]: 29.7 µM | TGI [28]: > 60 µM | TGI [29]: 30.7 µM | TGI [30]: 28.2 µM | TGI [31]: > 42.5 µM | TGI [32]: 31.4 µM | TGI [33]: 34.5 µM | TGI [34]: 31.8 µM | TGI [35]: 29.4 µM | TGI [36]: 22.9 µM | TGI [37]: 15.8 µM | TGI [38]: > 100 µM | TGI [39]: 32.8 µM | TGI [40]: 49.8 µM | TGI [41]: 28.6 µM | TGI [42]: 21.7 µM | TGI [43]: 9 µM | TGI [44]: 33.9 µM | TGI [45]: 11.7 µM | TGI [46]: 48.1 µM | TGI [47]: 4.07 µM | TGI [48]: 30.7 µM | TGI [49]: 65.7 µM | TGI [50]: 19.7 µM | TGI [51]: 26.8 µM | TGI [52]: 60.7 µM | TGI [53]: 28.3 µM | TGI [54]: 27.2 µM | TGI [55]: 29.3 µM | TGI [56]: 48.7 µM | TGI [57]: 27.9 µM | TGI [58]: 14.3 µM | TGI [59]: > 64.9 µM
